Each structure is given as a SMILES string.

The subject of this test is Bloodstream form of Trypanosoma brucei, strain Lister 427. The test can be described thus: Trypanosoma brucei growth inhibition assay (CellTiter-Glo, 24 h). It counts as cell-based. Conditions: Trypanosoma brucei; T. Brucei Growth Inibition Assay, class symbols; read-out: T. Brucei GI EC50. Put shortly:
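Bloodstream-form T. brucei Lister 427, 1500 parasites per well in supplemented IMDM with 10% FBS, were exposed to compound (DMSO ≤0.25% final) for 24 h at 37 °C. Viability was measured by CellTiter-Glo luminescence.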
With `COc1ccc2c(c1)nc(C(F)(F)F)n2CC(=O)N1CCN(CC2CCOC2)C[C@H]1c1ncc(-c2cc3ccccc3nc2OC)[nH]1` (stereo partly drawn) [2-(5-methoxy-2-(trifluoromethyl)-1H-benzo[d]imidazol-1-yl)-1-((2S)-2-(5-(2-methoxyquinolin-3-yl)-1H-imidazol-2-yl)-4-((tetrahydrofuran-3-yl)methyl)piperazin-1-yl)ethan-1-one], the EC50 is below 100 nM.
The value for `COc1ccc2[nH]c(C)c(CC(=O)N3CCCN(C)CC3c3ncc(-c4ccc5ccccc5c4)[nH]3)c2c1` (stereo not drawn) [2-(5-methoxy-2-methyl-1H-indol-3-yl)-1-(4-methyl-2-(5-(naphthalen-2-yl)-1H-imidazol-2-yl)-1,4-diazepan-1-yl)ethan-1-one] was 1010 to 5000 nM; that for `COc1ccc2[nH]c(C)c(CC(=O)N3CCN(C)CCC3c3ncc(-c4ccc5ccccc5c4)[nH]3)c2c1` (stereo not drawn) [2-(5-methoxy-2-methyl-1H-indol-3-yl)-1-(4-methyl-7-(5-(naphthalen-2-yl)-1H-imidazol-2-yl)-1,4-diazepan-1-yl)ethan-1-one] was 100 to 500 nM; that for `COc1ccc2[nH]c(C)c(CC(=O)N3CCN(Cc4ccn(C)n4)CCC3c3ncc(-c4cc5ccccc5nc4OC)[nH]3)c2c1` (stereo not drawn) [2-(5-methoxy-2-methyl-1H-indol-3-yl)-1-(7-(5-(2-methoxyquinolin-3-yl)-1H-imidazol-2-yl)-4-((1-methyl-1H-pyrazol-3-yl)methyl)-1,4-diazepan-1-yl)ethan-1-one] was below 100 nM.
The value for `COc1ccc2nc(C(F)(F)F)n(CC(=O)N3CCCCC3c3ncc(-c4cc5ccccc5nc4OC)[nH]3)c2c1` (stereo not drawn) [2-(6-methoxy-2-(trifluoromethyl)-1H-benzo[d]imidazol-1-yl)-1-(2-(5-(2-methoxyquinolin-3-yl)-1H-imidazol-2-yl)piperidin-1-yl)ethan-1-one] was below 100 nM; that for `COc1ccc2nc(C(F)(F)F)n(CC(=O)N3CCS(=O)(=O)CC3c3ncc(-c4cc5ccccc5nc4OC)[nH]3)c2c1` (stereo not drawn) [2-(6-methoxy-2-(trifluoromethyl)-1H-benzo[d]imidazol-1-yl)-1-(3-(5-(2-methoxyquinolin-3-yl)-1H-imidazol-2-yl)-1,1-dioxidothiomorpholino)ethan-1-one] was 100 to 500 nM.
For the molecule `COc1ccc2nc(C(F)(F)F)n(CC(=O)N3CCN(CCc4ccnn4C)CCC3c3ncc(-c4cc5ccccc5nc4OC)[nH]3)c2c1` (stereo not drawn) [2-(6-methoxy-2-(trifluoromethyl)-1H-benzo[d]imidazol-1-yl)-1-(7-(5-(2-methoxyquinolin-3-yl)-1H-imidazol-2-yl)-4-(2-(1-methyl-1H-pyrazol-5-yl)ethyl)-1,4-diazepan-1-yl)ethan-1-one], the EC50 was below 100 nM.
Turning to `COc1ccc2nc(C(F)(F)F)n(CC(=O)N3CCN(CCc4ccccn4)CCC3c3ncc(-c4cc5ccccc5nc4OC)[nH]3)c2c1` (stereo not drawn) [2-(6-methoxy-2-(trifluoromethyl)-1H-benzo[d]imidazol-1-yl)-1-(7-(5-(2-methoxyquinolin-3-yl)-1H-imidazol-2-yl)-4-(2-(pyridin-2-yl)ethyl)-1,4-diazepan-1-yl)-ethan-1-one], the half-maximal effective concentration (EC50) is 100 to 500 nM.
In the case of `COc1ccc2nc(C(F)(F)F)n(CC(=O)N3CCN(Cc4ccn(C)n4)CCC3c3ncc(-c4cc5ccccc5nc4OC)[nH]3)c2c1` (stereo not drawn) [2-(6-methoxy-2-(trifluoromethyl)-1H-benzo[d]imidazol-1-yl)-1-(7-(5-(2-methoxyquinolin-3-yl)-1H-imidazol-2-yl)-4-((1-methyl-1H-pyrazol-3-yl)methyl)-1,4-diazepan-1-yl)ethan-1-one], the EC50 was below 100 nM.
With `COc1ccc2nc(C(F)(F)F)n(CC(=O)N3CCN(CC4CCOC4)CCC3c3ncc(-c4cc5ccccc5nc4OC)[nH]3)c2c1` (stereo not drawn) [2-(6-methoxy-2-(trifluoromethyl)-1H-benzo[d]imidazol-1-yl)-1-(7-(5-(2-methoxyquinolin-3-yl)-1H-imidazol-2-yl)-4-((tetrahydrofuran-3-yl)methyl)-1,4-diazepan-1-yl)ethan-1-one], the EC50 was below 100 nM.
For `COc1ccc2nc(C(F)(F)F)n(CC(=O)N3CCN(Cc4ncco4)CCC3c3ncc(-c4cc5ccccc5nc4OC)[nH]3)c2c1` (stereo not drawn) [2-(6-methoxy-2-(trifluoromethyl)-1H-benzo[d]imidazol-1-yl)-1-(7-(5-(2-methoxyquinolin-3-yl)-1H-imidazol-2-yl)-4-(oxazol-2-ylmethyl)-1,4-diazepan-1-yl)ethan-1-one], the EC50 is below 100 nM.
As for `COc1ccc2nc(C(F)(F)F)n(CC(=O)N3CCN(Cc4cocn4)CCC3c3ncc(-c4cc5ccccc5nc4OC)[nH]3)c2c1` (stereo not drawn) [2-(6-methoxy-2-(trifluoromethyl)-1H-benzo[d]imidazol-1-yl)-1-(7-(5-(2-methoxyquinolin-3-yl)-1H-imidazol-2-yl)-4-(oxazol-4-ylmethyl)-1,4-diazepan-1-yl)ethan-1-one], the EC50 was below 100 nM.
Regarding `COc1ccc2nc(C(F)(F)F)n(CC(=O)N3CCN(Cc4cnccn4)CCC3c3ncc(-c4cc5ccccc5nc4OC)[nH]3)c2c1` (stereo not drawn) [2-(6-methoxy-2-(trifluoromethyl)-1H-benzo[d]imidazol-1-yl)-1-(7-(5-(2-methoxyquinolin-3-yl)-1H-imidazol-2-yl)-4-(pyrazin-2-ylmethyl)-1,4-diazepan-1-yl)ethan-1-one], the EC50 is below 100 nM.
The value for `COc1ccc2nc(C(F)(F)F)n(CC(=O)N3CCN(Cc4ccccn4)CCC3c3ncc(-c4cc5ccccc5nc4OC)[nH]3)c2c1` (stereo not drawn) [2-(6-methoxy-2-(trifluoromethyl)-1H-benzo[d]imidazol-1-yl)-1-(7-(5-(2-methoxyquinolin-3-yl)-1H-imidazol-2-yl)-4-(pyridin-2-ylmethyl)-1,4-diazepan-1-yl)ethan-1-one] was below 100 nM; that for `COc1ccc2nc(C(F)(F)F)n(CC(=O)N3CCN(C4CCOCC4)CCC3c3ncc(-c4cc5ccccc5nc4OC)[nH]3)c2c1` (stereo not drawn) [2-(6-methoxy-2-(trifluoromethyl)-1H-benzo[d]imidazol-1-yl)-1-(7-(5-(2-methoxyquinolin-3-yl)-1H-imidazol-2-yl)-4-(tetrahydro-2H-pyran-4-yl)-1,4-diazepan-1-yl)ethan-1-one] was below 100 nM; that for `COc1ccc2nc(C(F)(F)F)n(CC(=O)N3CCN(C4CCOC4)CCC3c3ncc(-c4cc5ccccc5nc4OC)[nH]3)c2c1` (stereo not drawn) [2-(6-methoxy-2-(trifluoromethyl)-1H-benzo[d]imidazol-1-yl)-1-(7-(5-(2-methoxyquinolin-3-yl)-1H-imidazol-2-yl)-4-(tetrahydrofuran-3-yl)-1,4-diazepan-1-yl)ethan-1-one] was below 100 nM.
With `COc1ccc2nc(C(F)(F)F)n(CC(=O)N3CCN(Cc4nccs4)CCC3c3ncc(-c4cc5ccccc5nc4OC)[nH]3)c2c1` (stereo not drawn) [2-(6-methoxy-2-(trifluoromethyl)-1H-benzo[d]imidazol-1-yl)-1-(7-(5-(2-methoxyquinolin-3-yl)-1H-imidazol-2-yl)-4-(thiazol-2-ylmethyl)-1,4-diazepan-1-yl)ethan-1-one], the EC50 is below 100 nM.
The value for `COc1ccc2nc(C(F)(F)F)n(CC(=O)N3CCN(Cc4cscn4)CCC3c3ncc(-c4cc5ccccc5nc4OC)[nH]3)c2c1` (stereo not drawn) [2-(6-methoxy-2-(trifluoromethyl)-1H-benzo[d]imidazol-1-yl)-1-(7-(5-(2-methoxyquinolin-3-yl)-1H-imidazol-2-yl)-4-(thiazol-4-ylmethyl)-1,4-diazepan-1-yl)ethan-1-one] was below 100 nM; that for `COc1ccc2nc(C(F)(F)F)n(CC(=O)N3CCN(CC4CCOC4)C[C@H]3c3noc(-c4cc5ccccc5nc4OC)n3)c2c1` (stereo partly drawn) [2-(6-methoxy-2-(trifluoromethyl)-1H-benzo[d]imidazol-1-yl)-1-((2S)-2-(5-(2-methoxyquinolin-3-yl)-1,2,4-oxadiazol-3-yl)-4-((tetrahydrofuran-3-yl)methyl)piperazin-1-yl)ethan-1-one] was 1010 to 5000 nM.
As for `COc1ccc2nc(C(F)(F)F)n(CC(=O)N3CCN(CC4CCOC4)C[C@H]3c3ncc(-c4cc5ccccc5nc4OC)[nH]3)c2c1` (stereo partly drawn) [2-(6-methoxy-2-(trifluoromethyl)-1H-benzo[d]imidazol-1-yl)-1-((2S)-2-(5-(2-methoxyquinolin-3-yl)-1H-imidazol-2-yl)-4-((tetrahydrofuran-3-yl)methyl)piperazin-1-yl)ethan-1-one], the EC50 was below 100 nM.
For the molecule `COc1ccc2nc(C(F)(F)F)n(CC(=O)N3CCC(N(C)Cc4cnccn4)C[C@H]3c3ncc(-c4cc5ccccc5nc4OC)[nH]3)c2c1` (stereo partly drawn) [2-(6-methoxy-2-(trifluoromethyl)-1H-benzo[d]imidazol-1-yl)-1-((2S)-2-(5-(2-methoxyquinolin-3-yl)-1H-imidazol-2-yl)-4-(methyl(pyrazin-2-ylmethyl)amino)piperidin-1-yl)ethan-1-one], the EC50 is below 100 nM.
Consider `COc1ccc2nc(C(F)(F)F)n(CC(=O)N3CCN(CC4CCOC4)C[C@H]3c3nnc(-c4cc5ccccc5nc4OC)[nH]3)c2c1` (stereo partly drawn) [2-(6-methoxy-2-(trifluoromethyl)-1H-benzo[d]imidazol-1-yl)-1-((2S)-2-(5-(2-methoxyquinolin-3-yl)-4H-1,2,4-triazol-3-yl)-4-((tetrahydrofuran-3-yl)methyl)piperazin-1-yl)ethan-1-one], for which the EC50 is below 100 nM.
As to `COc1ccc2nc(C(F)(F)F)n(CC(=O)N3CC[C@@H](N(C)Cc4ccn(C)n4)C[C@H]3c3ncc(-c4cc5ccccc5nc4OC)[nH]3)c2c1` [2-(6-methoxy-2-(trifluoromethyl)-1H-benzo[d]imidazol-1-yl)-1-((2S,4R)-2-(5-(2-methoxyquinolin-3-yl)-1H-imidazol-2-yl)-4-(methyl((1-methyl-1H-pyrazol-3-yl)methyl)amino)piperidin-1-yl)ethan-1-one], the EC50 is below 100 nM.
On to `COc1ccc2nc(C(F)(F)F)n(CC(=O)N3CC[C@H](NCc4cncn4C)C[C@H]3c3ncc(-c4cc5ccccc5nc4OC)[nH]3)c2c1` [2-(6-methoxy-2-(trifluoromethyl)-1H-benzo[d]imidazol-1-yl)-1-((2S,4S)-2-(5-(2-methoxyquinolin-3-yl)-1H-imidazol-2-yl)-4-(((1-methyl-1H-imidazol-5-yl)methyl)amino)piperidin-1-yl)ethan-1-one], for which the EC50 was below 100 nM.

(Values after patent publication US10815222B2, “Compounds for use in the treatment of kinetoplastid infection” (C.N.C.C.S. S.c.a.r.l. COLLEZIONE NAZIONALE DEI COMPOSTI …, priority 2016, dated 2020).)
